Assays:
[1] = target: T1, Nuclear receptor subfamily 1 group I member 3 (Homo sapiens, UniProt Q14994); assay: Activation of human CAR expressed in human HepG2 cells coexpressing CYP2B6 at 0.25 uM after 24 hrs by dual luciferase reporter gene assay; format: ADME, cell-based; settings: hepg2, 24 h
T1 sequence (Q14994 whole entry): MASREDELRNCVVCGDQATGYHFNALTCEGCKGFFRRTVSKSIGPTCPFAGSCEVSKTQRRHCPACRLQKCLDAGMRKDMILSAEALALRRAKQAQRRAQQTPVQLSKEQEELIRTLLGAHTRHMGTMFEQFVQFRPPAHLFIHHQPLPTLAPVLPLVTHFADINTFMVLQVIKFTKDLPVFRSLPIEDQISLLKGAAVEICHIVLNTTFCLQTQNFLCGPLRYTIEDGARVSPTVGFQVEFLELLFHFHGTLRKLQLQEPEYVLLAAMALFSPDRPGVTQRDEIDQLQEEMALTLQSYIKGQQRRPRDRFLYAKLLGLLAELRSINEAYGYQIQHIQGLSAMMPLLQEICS

[2] = target: T1, Nuclear receptor subfamily 1 group I member 3; assay: Activation of human CAR expressed in rat hepatocytes coexpressing CYP2B1 at 1 uM after 24 hrs by dual luciferase reporter gene assay; format: ADME, cell-based, Hepatocyte
[3] = target: T2, PXR (CYP3A4 reporter) (Rattus norvegicus, UniProt Q9R1A7); assay: Activation of rat PXR expressed in human HepG2 cells coexpressing CYP3A4 at 0.1 to 10 uM after 24 hrs by dual luciferase reporter gene assay relative to control; settings: human HepG2 cells expressing rat PXR and coexpressing CYP3A4
T2 sequence (Q9R1A7 whole entry): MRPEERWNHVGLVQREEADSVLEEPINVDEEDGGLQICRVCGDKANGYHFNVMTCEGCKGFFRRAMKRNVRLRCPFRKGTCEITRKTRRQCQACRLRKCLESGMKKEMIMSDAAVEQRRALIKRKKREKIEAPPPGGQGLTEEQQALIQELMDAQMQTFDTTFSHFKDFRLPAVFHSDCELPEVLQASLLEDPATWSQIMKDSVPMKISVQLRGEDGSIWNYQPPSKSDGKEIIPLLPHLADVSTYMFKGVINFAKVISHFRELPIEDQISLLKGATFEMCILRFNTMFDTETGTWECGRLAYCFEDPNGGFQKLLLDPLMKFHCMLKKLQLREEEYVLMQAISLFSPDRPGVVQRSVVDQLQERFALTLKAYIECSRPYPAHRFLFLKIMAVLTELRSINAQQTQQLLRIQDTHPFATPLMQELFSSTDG

[4] = target: T2, PXR (CYP3A4 reporter); assay: Activation of rat PXR expressed in rat hepatocytes coexpressing CYP3A4 at 10 uM after 24 hrs by dual luciferase reporter gene assay relative to control; settings: rat hepatocytes expressing rat PXR and coexpressing CYP3A4
[5] = target: T3, Nuclear receptor subfamily 1 group I member 2 (Homo sapiens, UniProt O75469); assay: Activation of human PXR expressed in rat hepatocytes coexpressing CYP3A4 at 10 uM after 24 hrs by dual luciferase reporter gene assay relative to control
T3 sequence (O75469 whole entry): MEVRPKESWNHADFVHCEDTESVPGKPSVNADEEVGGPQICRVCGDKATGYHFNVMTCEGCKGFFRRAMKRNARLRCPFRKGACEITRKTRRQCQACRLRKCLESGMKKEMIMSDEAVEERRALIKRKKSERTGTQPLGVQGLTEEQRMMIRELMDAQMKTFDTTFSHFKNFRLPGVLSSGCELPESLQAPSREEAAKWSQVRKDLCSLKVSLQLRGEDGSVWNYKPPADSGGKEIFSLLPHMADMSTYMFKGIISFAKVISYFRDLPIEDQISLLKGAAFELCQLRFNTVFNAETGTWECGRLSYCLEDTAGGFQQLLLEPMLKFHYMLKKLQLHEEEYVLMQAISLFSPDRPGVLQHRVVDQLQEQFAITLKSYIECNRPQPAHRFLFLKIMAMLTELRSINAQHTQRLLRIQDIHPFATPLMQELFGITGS

[6] = target: T3, Nuclear receptor subfamily 1 group I member 2; assay: Activation of human PXR expressed in human HepG2 cells coexpressing CYP3A4 at 10 uM after 24 hrs by dual luciferase reporter gene assay relative to control; settings: hepg2, 24 h
[7] = target: T4, CYP2B1 mRNA (CAR activation) (Rattus norvegicus, UniProt Q9QUS1); assay: Activation of CAR in rat hepatocytes assessed as upregulation of CYP2B1 mRNA expression at 100 uM after 24 hrs by RT-PCR analysis relative to control; format: ADME, cell-based, Hepatocyte; settings: read-out: FC
T4 sequence (Q9QUS1 whole entry): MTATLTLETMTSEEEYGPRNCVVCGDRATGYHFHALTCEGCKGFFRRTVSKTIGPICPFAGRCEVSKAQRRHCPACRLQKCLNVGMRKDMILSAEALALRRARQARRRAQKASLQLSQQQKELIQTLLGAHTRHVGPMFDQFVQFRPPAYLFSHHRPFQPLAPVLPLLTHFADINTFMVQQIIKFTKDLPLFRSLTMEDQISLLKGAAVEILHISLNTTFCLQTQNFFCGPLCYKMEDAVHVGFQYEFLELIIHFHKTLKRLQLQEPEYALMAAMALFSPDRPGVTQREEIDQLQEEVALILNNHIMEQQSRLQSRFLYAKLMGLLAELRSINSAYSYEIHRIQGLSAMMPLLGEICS

[8] = target: T5, CYP2B activity (CAR activation) (Rattus norvegicus, UniProt Q9QUS1); assay: Activation of CAR in rat hepatocytes assessed as increase in CYP2B-mediated benzyloxyresorufin O-dealkylation at 100 uM after 24 hrs by spectrofluorometric analysis relative to control; format: ADME, cell-based, Hepatocyte; settings: probe benzyloxyresorufin (O-dealkylation), read-out: FC
T5 sequence (Q9QUS1 whole entry): T4 sequence (Q9QUS1 whole entry)

[9] = target: T6, CAR (CYP2B1 reporter) (Rattus norvegicus, UniProt Q9QUS1); assay: Activation of rat CAR expressed in rat hepatocytes coexpressing CYP2B1 at 100 uM after 24 hrs by dual luciferase reporter gene assay relative to control; format: ADME, cell-based, Hepatocyte; settings: rat hepatocytes expressing rat CAR and coexpressing CYP2B1, read-out: FC
T6 sequence (Q9QUS1 whole entry): T4 sequence (Q9QUS1 whole entry)

[10] = target: T7, Nuclear receptor subfamily 1 group I member 3 (Rattus norvegicus, UniProt Q9QUS1); assay: Activation of rat CAR expressed in rat hepatocytes coexpressing CYP2B1 at 1 uM after 24 hrs by dual luciferase reporter gene assay; format: ADME, cell-based, Hepatocyte
T7 sequence (Q9QUS1 whole entry): T4 sequence (Q9QUS1 whole entry)

[11] = target: T1, Nuclear receptor subfamily 1 group I member 3; assay: Activation of human CAR expressed in human HepG2 cells coexpressing CYP2B6 at 10 uM after 24 hrs by dual luciferase reporter gene assay; format: ADME, cell-based; settings: hepg2, 24 h
[12] = target: T8, Nuclear receptor subfamily 1 group I member 2 (Rattus norvegicus, UniProt Q9R1A7); assay: Antagonist activity at rat PXR expressed in human HepG2 cells coexpressing CYP3A4 assessed as inhibition of PCN-induced receptor activation at 30 uM after 24 hrs by dual luciferase reporter gene assay; format: ADME, cell-based; settings: hepg2, 24 h
T8 sequence (Q9R1A7 whole entry): T2 sequence (Q9R1A7 whole entry)

[13] = target: T3, Nuclear receptor subfamily 1 group I member 2; assay: Antagonist activity at human PXR expressed in human HepG2 cells coexpressing CYP3A4 assessed as inhibition of rifampicin-induced receptor activation at 30 uM after 24 hrs by dual luciferase reporter gene assay; format: ADME, cell-based; settings: hepg2, 24 h

`Clc1cnc(Oc2ccc(Oc3ncc(Cl)cc3Cl)cc2)c(Cl)c1` was tested, and the Activity [1] was “Not Active” and the Activity [2] was “Not Active”.

For `CC(=O)[C@H]1[C@H](C#N)C[C@H]2[C@@H]3CC=C4C[C@@H](O)CC[C@]4(C)[C@H]3CC[C@@]21C` [PREGNENOLONE CARBONITRILE], the fold induction at 24 h, 10 µM [3] was 19, the fold induction at 24 h, 10 µM [4] was 9 and the Activity [5] was “Not Active”. For the same compound, the Activity [6] was “Not Active”.

Work on `CCC1(c2ccccc2)C(=O)NC(=O)NC1=O` [PHENOBARBITAL SODIUM] yielded a fold induction at 24 h, 100 µM [7] of 48, a fold induction at 24 h, 100 µM [8] of 12 and a fold induction at 24 h, 100 µM [9] of 9.

`Clc1ccc(-c2nc3sccn3c2/C=N/OCc2ccc(Cl)c(Cl)c2)cc1` was tested, and the Activity [10] was “Not Active” and the Activity [11] was “Active”.

In the case of `CC(=O)N1CCN(c2ccc(OCC3COC(Cn4ccnc4)(c4ccc(Cl)cc4Cl)O3)cc2)CC1` (stereo not drawn) [KETOCONAZOLE], the “inhibition (INH)” value [12] is reported as “Active” and the “inhibition (INH)” value [13] is reported as “Active”.
